Assay results taken from paper PMC4229968, “The Inhibition of the Components from Shengmai Injection towards UDP-Glucuronosyltransferase” (Evidence-based Complementary and Alternative Medicine : eCAM, 2014).

Experiments:
Format in all cases: in vitro ADME
UGT1A1 = target: T1, UGT1A1 (Homo sapiens, UniProt P22309); assay: Recombinant UGT1A1-catalyzed 4-MU glucuronidation inhibition; settings: pH 7.4, probe 4-methylumbelliferone (4-MU), UGT1A1, 100 μM of compound, 4-MU substrate, read-out: residual activity
T1 construct: purchased BD Gentest Corp. (Woburn, MA, USA); host or cells: baculovirus-infected insect cells
T1 sequence (P22309 26-533): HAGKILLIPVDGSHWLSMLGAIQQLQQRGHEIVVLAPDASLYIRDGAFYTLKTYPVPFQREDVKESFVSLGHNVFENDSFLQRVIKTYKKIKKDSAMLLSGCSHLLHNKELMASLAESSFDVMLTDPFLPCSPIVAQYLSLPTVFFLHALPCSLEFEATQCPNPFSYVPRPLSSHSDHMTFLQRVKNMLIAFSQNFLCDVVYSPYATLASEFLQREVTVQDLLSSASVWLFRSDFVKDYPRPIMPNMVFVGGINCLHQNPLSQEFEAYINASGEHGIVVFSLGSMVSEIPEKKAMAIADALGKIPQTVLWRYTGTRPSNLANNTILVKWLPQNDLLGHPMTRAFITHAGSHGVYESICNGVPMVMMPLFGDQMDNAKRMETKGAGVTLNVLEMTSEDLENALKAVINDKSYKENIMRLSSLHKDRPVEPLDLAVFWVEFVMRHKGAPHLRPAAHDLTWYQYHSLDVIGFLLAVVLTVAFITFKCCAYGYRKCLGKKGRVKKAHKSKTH
From the text: (§1) 4-Methylumbelliferone (4-MU), 4-methylumbelliferone-β-D-glucuronide (4-MUG), Tris-HCl, 7-hydroxycoumarin, and uridine-5′-diphosphoglucuronic acid (UDPGA) (trisodium salt) were purchased from Sigma-Aldrich (St. Louis, MO). Recombinant human UGT isoforms (UGT1A1, UGT1A3, UGT1A4, UGT1A6, UGT1A7, UGT1A8, UGT1A9, UGT1A10, UGT2B4, UGT2B7, and UGT2B15) expressed in baculovirus-infected insect cells were obtained from BD Gentest Corp. (Woburn, MA, USA). Ophiopogonin D (OD), ophiopogonin D′ (OD′), methylophiopogonanone A (MA), methylophiopogonanone B (MB), and ruscorectal (RU) were purchased from Sichuan Weikeqi Biotechnology Company (Chengdu, Sichuan, China). The purity of these compounds was above 95%. All other reagents were of HPLC grade or of the highest grade commercially available.
(§2) 4-MU, the nonspecific probe substrate for all the UGT isoforms except UGT1A4, was used in the present study to initially screen the inhibition potential of maidong's components towards UGT isoforms as previously reported. In brief, the incubation system (total volume = 200 μL) consisted of recombinant UGTs, 5 mM UDPGA, 5 mM MgCl2, 50 mM Tris-HCl (pH = 7.4), and 4-MU in the absence or presence of different concentrations of maidong's components. The compounds were dissolved in DMSO, and the final concentration of DMSO was below 0.5% (v/v). The used incubation time and protein concentration were previously determined to ensure the reaction rate within the linear range. The 4-MU concentration was equal to known K m or S 50 values for each UGT isoform. After 5 min preincubation at 37°C, the incubation reaction was initiated via adding UDPGA to the mixture system. The reactions were quenched by adding 100 μL acetonitrile with 7-hydroxycoumarin (100 μM) as internal standard. Centrifuged at 20000 ×g for 10 min, an aliquot of supernatant was transferred to an autoinjector vial for HPLC analysis. The HPLC system (Shimadzu, Kyoto, Japan) contained a SCL-10A system controller, two LC-10AT pumps, a SIL-10A autoinjector, and a SPD-10AVP UV detector. Chromatographic separation was carried out using a C18 column (4.6 × 200 mm, 5 μm, Kromasil) at a flow rate of 1 mL/min and UV detector at 316 nm. The mobile phase consisted of acetonitrile (A) and H2O containing 0.5% (v/v) formic acid (B). The following gradient condition was used: 0–15 min, 95–40% B; 15–20 min, 10% B; 20–30 min, 95% B.

UGT1A8 = target: T2, UGT1A8 (Homo sapiens, UniProt Q9HAW9); assay: Recombinant UGT1A8-catalyzed 4-MU glucuronidation inhibition; settings: for activity at 100 µM: UGT1A8, 100 μM of compound, 4-MU substrate, read-out: residual activity
T2 construct: purchased BD Gentest Corp. (Woburn, MA, USA); host or cells: baculovirus-infected insect cells
T2 sequence (Q9HAW9 26-530): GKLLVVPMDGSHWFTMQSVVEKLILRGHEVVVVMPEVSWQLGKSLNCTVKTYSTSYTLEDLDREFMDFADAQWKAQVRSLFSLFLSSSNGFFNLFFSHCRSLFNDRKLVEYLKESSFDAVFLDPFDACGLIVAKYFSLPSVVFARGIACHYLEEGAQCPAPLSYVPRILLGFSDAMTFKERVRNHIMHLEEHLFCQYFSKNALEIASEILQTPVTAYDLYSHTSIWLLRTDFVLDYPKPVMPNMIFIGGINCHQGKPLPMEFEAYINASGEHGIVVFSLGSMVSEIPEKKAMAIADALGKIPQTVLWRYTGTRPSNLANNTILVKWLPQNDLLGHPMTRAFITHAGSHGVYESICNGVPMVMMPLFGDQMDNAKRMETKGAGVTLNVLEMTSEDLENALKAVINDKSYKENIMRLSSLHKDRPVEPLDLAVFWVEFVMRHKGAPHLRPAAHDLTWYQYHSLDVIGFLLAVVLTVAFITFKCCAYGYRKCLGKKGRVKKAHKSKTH
From the text: as §1, §2
To determine the inhibition kinetic type and parameters (K i), the reaction velocity (V) was determined at multiple concentrations of maidong's components and 4-MU (or TFP). Dixon plot and Lineweaver-Burk plot were used to fit the data. The inhibition kinetic type was evaluated through determining the intersection point in the Dixon and Lineweaver-Burk plots.
K m value is the substrate concentration in which the velocity reached half of the maximum velocity (V max) of the reaction. K i value is the inhibition constant.

UGT2B15 = target: T3, UGT2B15 (Homo sapiens, UniProt P54855); assay: Recombinant UGT2B15-catalyzed 4-MU glucuronidation inhibition; settings: pH 7.4, probe 4-methylumbelliferone (4-MU), UGT2B15, 100 μM of compound, 4-MU substrate, read-out: residual activity
T3 construct: purchased BD Gentest Corp. (Woburn, MA, USA); host or cells: baculovirus-infected insect cells
T3 sequence (P54855 24-530): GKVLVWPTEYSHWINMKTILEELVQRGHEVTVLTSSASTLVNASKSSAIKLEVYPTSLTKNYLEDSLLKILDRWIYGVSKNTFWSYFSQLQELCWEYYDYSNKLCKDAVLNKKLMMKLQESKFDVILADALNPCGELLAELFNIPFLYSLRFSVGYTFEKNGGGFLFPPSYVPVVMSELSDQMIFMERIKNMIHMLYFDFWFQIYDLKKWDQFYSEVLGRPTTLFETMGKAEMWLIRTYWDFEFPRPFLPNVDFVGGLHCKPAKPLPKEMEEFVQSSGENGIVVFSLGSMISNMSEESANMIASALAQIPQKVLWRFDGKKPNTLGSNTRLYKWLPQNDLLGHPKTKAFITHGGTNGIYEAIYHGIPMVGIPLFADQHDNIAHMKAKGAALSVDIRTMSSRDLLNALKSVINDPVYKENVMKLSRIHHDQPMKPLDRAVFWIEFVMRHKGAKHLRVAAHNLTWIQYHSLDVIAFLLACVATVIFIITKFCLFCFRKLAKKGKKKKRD
From the text: as §1, §2

[1] = human, pH 7.4, probe 4-methylumbelliferone (4-MU)

Compound | activity at 100 µM (UGT1A1) [%] | activity at 100 µM (UGT1A8; [1]) [%] | activity at 100 µM (UGT2B15) [%] | Ki (UGT1A8) [µM] | inhibition type (UGT1A8; UGT1A8, Dixon and Lineweaver-Burk plots) | inhibition at 100 µM (UGT1A8; human, pH 7.4, probe 4-methylumbelliferone (4-MU), UGT1A8, at 100 μM, read-out: inhibition percent) [%]
COc1ccc(C[C@@H]2COc3c(C)c(O)c(C)c(O)c3C2=O)cc1 [MB, methylophiopogonanone B] | 27.9 ± 11.1 | 85 ± 4.5 | 56.1 ± 9.8 | – | – | –
C[C@@H]1CC[C@@]2(OC1)O[C@H]1C[C@H]3[C@@H]4CC=C5C[C@@H](O[C@@H]6O[C@H](CO)[C@@H](O)[C@H](O[C@@H]7OC[C@@H](O)[C@H](O)[C@H]7O)[C@H]6O[C@@H]6O[C@@H](C)[C@H](O)[C@@H](O)[C@H]6O)CC[C@]5(C)[C@H]4CC[C@]3(C)[C@H]1[C@@H]2C [OD′, ophiopogonin D′] | 81 ± 12.6 | 18.9 ± 6.6 | 35.5 ± 1.7 | – | – | –
Cc1c(O)c(C)c2c(c1O)C(=O)[C@H](Cc1ccc3c(c1)OCO3)CO2 [MA, methylophiopogonanone A] | 31.3 ± 1.3 | 20.5 ± 2.1 | 23.8 ± 2.8 | – | – | –
C[C@@H]1CC[C@@]2(OC1)O[C@H]1C[C@H]3[C@@H]4CC=C5C[C@@H](O)C[C@@H](O[C@@H]6O[C@H](C)[C@H](O)[C@H](O[C@@H]7OC[C@@H](O)[C@H](O)[C@H]7O)[C@H]6O[C@@H]6O[C@@H](C)[C@H](O)[C@@H](O)[C@H]6O)[C@]5(C)[C@H]4CC[C@]3(C)[C@H]1[C@@H]2C [OD, ophiopogonin D] | 77.1 ± 3.8 | 17.3 ± 0.9 | 36.9 | 40.1 | competitively inhibited | 82.7
CC1CCC2(OC1)OC1CC3C4CC=C5CC(O)CC(O)C5(C)C4CCC3(C)C1C2C (stereo not drawn) [RU, ruscorectal] | 41.5 ± 36.9 | 72 ± 3 | 55.5 ± 19.6 | – | – | –
